# Assay results published in patent US9890429B2, “Compositions, kits, and methods for the identification, assessment, prevention, and therapy of cancer” (Dana-Farber Cancer Institute, Inc., priority 2012, dated 2018).
# How the values were obtained:
# [1] = test system: luciferized mCherry+ (Toledo, Ly4 or Ly1) DLBCL cells xenotransplanted in NSG mice; assay: In vivo efficacy in DLBCL xenografts (bioluminescence, flow cytometry, immunohistochemistry); set-up: species or system mouse; conditions: multiple DLBCL xenograft models in NSG mice, 7.5 mg/kg daily IP vs vehicle
# DLBCL cell lines [2] = assay: Apoptosis (Annexin V/7-AAD staining, subG1 peaks); format: cell-based, human; conditions: subG1 peaks and Annexin V/7-AAD staining, 72 hr treatment
# Method: Cellular apoptosis was analyzed with an APC AnnexinV/7ADD Apoptosis Detection kit (BD Pharmingen). AnnexinV/7AAD plots and cell cycle graphics were generated using FlowJo software V7.6.1 for Windows (Tree Star).
# DLBCL cell lines [3] = assay: Proliferation of DLBCL cell lines after chemical CDK inhibition (alamarBlue assay); format: cell-based, human
# Method: The identities of the DLBCL cell lines used in this study were confirmed via STR profiling (PowerPlex®1.2 system [Promega]) and the online verification services of the cell banks JCRB and DSMZ (available on the World Wide Web at cellbank.nibio.go.jp/cellbank_e.html and dsmz.de/STRanalysis). All DLBCL cell lines were cultured at 37° C. in 5% C02. SU-DHL-6, SU-DHL-7, DB and Toledo were propagated in RPMI; OCI-Ly3, OCI-Ly18 and OCI-Ly19 were grown in IMDM. HEK293T cells for lentiviral production were cultured in DMEM. All media were supplemented with 10 mM HEPES buffer, 2 mM L-glutamine, 50 U/mL penicillin, 50 U/mL streptomycin and 10% heat-inactivated fetal calf serum (Invitrogen). To ensure that cells were in logarithmic growth phase, cells were diluted to 200,000 cells/ml 48 h prior to any experiment.
# The pan-CDK inhibitor, flavopiridol (Selleck Chemicals, Houston, USA), was suspended in DMSO (10 mM stock solution) and stored at −20° C. until use. Following treatment, proliferation of DLBCL cell lines was assessed with the alamarBlue assay (Invitrogen, Carlsbad, Calif.).
# DLBCL cell lines [4] = assay: Cell cycle analysis (Hoechst 33342, flow cytometry); format: cell-based, human; conditions: 72 hr treatment
# Method: Cells were re-suspended in 1 ml of growth medium supplemented with 10 μg/ml Hoechst 33342 (Molecular Probes, Invitrogen) as final concentration. After 60 min at 37° C. in the dark. Analysis was performed on a FACSCAriallu cytometer (BD Biosciences) using the UV laser 350 nm with 20 mW. The cell cycle was plotted as histogram after excluding doublets.
# Cell cycle analysis was performed at 72 h using Hoechst 33342 (Supplemental Methods) and a FACSCAriaIIu cytometer (BD Biosciences) with a UV laser at 350 nm with 20 mW.
# [5] = test system: RB1 phosphorylation (pS780 and pT821); conditions: DLBCL cell lines; 24 hr treatment
# Method: For SDS-PAGE, total cell lysates were obtained using NP-40 lysis buffer (Tris-HCl 50 mM pH7.4, NaCl 150 mM, NaF 5 mM, EDTA 5 mM, 1% NP-40) supplemented with 1 mM activated Na3VO4 and complete proteinase inhibitor cocktail (Roche). […] After washing, membranes were probed against the indicated antigens following the manufacturer's recommendation. […] For chemoluminescence detection, enhanced ECL (GE Healthcare, Piscataway, N.J.) was used. After stripping, membranes were re-probed for GAPDH (1:3000, Santa Cruz Biotechnology) as loading control.
smiles,measurement,setting,value
CN1CC[C@H](c2c(O)cc(O)c3c(=O)cc(-c4ccccc4Cl)oc23)[C@H](O)C1 [flavopiridol],lymphoma infiltration of bone marrow and spleen,[1],significantly reduced
same,tumor growth,[1]; bioluminescence,significantly reduced tumor growth
same,apoptosis,DLBCL cell lines [2],increased apoptosis
same,sensitivity of proliferation to lower doses,"DLBCL cell lines [3]; DHL7, DLBCL cell line with single copy RB1 loss, lower doses",less sensitive
same,cellular proliferation,"DLBCL cell lines [3]; DLBCL cell lines with decreased or absent p53 activity and CNAs of cell cycle components, nanomolar doses, 1-4 days",decreased the cellular proliferation
same,"cell cycle (S phase, arrest)",DLBCL cell lines [4],decreased S phase and induced cell cycle arrest
same,phosphorylation of RB1 at CDK4/6 and CDK2-specific sites (pS780 and pT821),[5],decreased the phosphorylation of RB1
